Experimental data as given in PubChem BioAssay (NCI).
Where “and” joins values, the source holds several entries; their conditions need not be identical. Identical values can stand only once.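 48-hour exposure; five concentrations; linearly interpolated endpoints. Abbreviation: GI50, concentration required for 50% inhibition of growth. TGI marks complete inhibition of growth.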

What was measured:
Assay in all cases: growth of human tumour cells (NCI), 48 h
ACHN renal = tested on: ACHN renal
HL-60(TB) leukemia = tested on: HL-60(TB) leukemia
HOP-62 NSCLC = tested on: HOP-62 NSCLC
K-562 leukemia = tested on: K-562 leukemia
KM12 colon = tested on: KM12 colon
NCI-H226 lung = tested on: NCI-H226 lung
OVCAR-8 ovarian = tested on: OVCAR-8 ovarian
SF-295 CNS = tested on: SF-295 CNS
SK-OV-3 ovarian = tested on: SK-OV-3 ovarian
UACC-257 melanoma = tested on: UACC-257 melanoma

| Compound | GI50 (ACHN renal) [µM] | TGI (ACHN renal) [µM] | GI50 (HL-60(TB) leukemia) [µM] | TGI (HL-60(TB) leukemia) [µM] | GI50 (HOP-62 NSCLC) [µM] | TGI (HOP-62 NSCLC) | GI50 (K-562 leukemia) [µM] | TGI (K-562 leukemia) [µM] | GI50 (KM12 colon) [µM] | TGI (KM12 colon) [µM] | GI50 (NCI-H226 lung) [µM] | TGI (NCI-H226 lung) [µM] | GI50 (OVCAR-8 ovarian) [µM] | TGI (OVCAR-8 ovarian) [µM] | GI50 (SF-295 CNS) [µM] | TGI (SF-295 CNS) | GI50 (SK-OV-3 ovarian) [µM] | TGI (SK-OV-3 ovarian) [µM] | GI50 (UACC-257 melanoma) [µM] | TGI (UACC-257 melanoma) [µM] |
| --- | --- | --- | --- | --- | --- | --- | --- | --- | --- | --- | --- | --- | --- | --- | --- | --- | --- | --- | --- | --- |
| O=C(Nc1cccc(-n2ccc3c(NC(=O)c4ccccc4)nccc32)c1)c1ccc(N2CCOCC2)c(C(F)(F)F)c1 | 0.0853 | > 63.5 | 0.0393 | 4.82 | 0.0536 | > 94.7 µM | 0.0387 | > 100 | 0.0364 | 1.36 | 0.0827 | > 92.9 | 0.055 | > 100 | 0.0306 | 0.49 µM | 0.0326 | 2.66 | 2.36 | > 100 |
| CCOc1ccc2nc(-c3ccc(O)cc3)sc2c1 | – | > 100 | – | 8.81 | – | – | – | > 100 | – | > 100 | – | > 100 | – | > 100 | – | 61.6 µM | – | 94.3 | – | 64.5 |
| CC[C@]1(O)C[C@H]2CN(CCc3c([nH]c4ccccc34)[C@@](C(=O)OC)(c3cc4c(cc3OC)N(C=O)[C@H]3[C@@](O)(C(=O)OC)[C@H](OC(C)=O)[C@]5(CC)C=CCN6CC[C@]43[C@@H]65)C2)C1 | 0.00846 | – | – | – | – | 56.9 µM and 142 µM | – | – | – | – | – | – | – | – | – | 0.141 µM and 0.536 µM | – | – | – | – |
| O=C1OC(c2ccccc2)=N/C1=C\c1cccnc1 | – | > 100 | – | > 100 | – | > 100 µM | – | > 100 | – | > 100 | – | > 100 | – | > 100 | – | > 100 µM | – | > 100 | – | > 100 |
| COC1=C2CC(C)CC(OC)C(O)C(C)/C=C(\C)C(OC(N)=O)C(OC)/C=C\C=C(/C)C(=O)NC(=C(C=NC(C)(C)C)C1=O)C2=O (configuration not stated) | – | – | – | 1.86 | – | 41 µM | – | 6.26 | – | 15 | – | 13.8 | – | 73.6 | – | 31.7 µM | – | 67.3 | – | 17.8 |
| CC(=O)OC1C(C)OC(Oc2c(C)c3c4c(c2O)[C@@H](C)CC[C@@H]4[C@@H](C)C[C@H]3C=C(C)C)C(O)C1O (some centres not stated) | – | – | – | – | 2.26 | 5.3 µM | 2.24 | 5.27 | 1.87 | 3.66 | – | – | 37.8 | > 100 | – | – | – | – | – | – |
| CS(=O)(=O)c1ccc(/C=N/NC(N)=S)cc1 | – | > 100 | – | > 100 | – | > 100 µM | – | > 100 | – | > 100 | – | > 100 | – | > 100 | – | > 100 µM | – | > 100 | – | > 100 |
| Nc1ncnc2c1ncn2C1OC(COP(=O)(O)O)C(O)C1O (configuration not stated) | – | – | – | > 50 | – | > 50 µM | – | > 50 | – | > 50 | – | > 50 | – | 15.2 | – | > 50 µM | – | > 50 | – | > 50 |
| Fc1ccc2[nH]cc(-c3nc(-c4c[nH]c5ncccc45)cs3)c2c1 | – | – | – | – | – | – | 5.03 | > 100 | 4.65 | > 100 | – | – | – | – | – | – | – | – | > 100 | > 100 |
| C/C(CC/C(C)=N/O)=N\O | – | > 100 | – | > 100 | – | > 100 µM | – | > 100 | – | > 100 | – | > 100 | – | > 100 | – | > 100 µM | – | > 100 | – | > 100 |
| N/C(=N\N=C/c1ccccc1O)NO | – | – | – | > 36 | – | > 60.8 µM | – | > 77.6 | – | > 100 | – | 64.8 | – | > 43.7 | – | > 34.4 µM | – | > 87.1 | – | > 100 |
| O=C(O)c1cc2ccccc2c(N=Nc2ccccc2)c1O | – | 69.5 | – | 33.1 | – | 32.5 µM | – | > 100 | – | 36.4 | – | – | – | > 100 | – | 25.9 µM | – | > 100 | – | 30.5 |
